Assay results published in patent publication US20250304952A1, “DNA ELEMENT RESPONSIVE TO EXTRACHROMOSOMAL DNA IN CANCER CELLS” (The Board of Trustees of the Leland Stanford Junior …, priority 2021, published 2025).

Assays:
Type in all cases: cell-based, human
[1] = tested on: ecDNA hubs in TetO-GFP COLO320-DM cells; assay: Live cell imaging of TetR-eGFP-labeled ecDNAs through cell division; conditions: 500 nM JQ1
Excerpt: sgRNA was designed by E-CRISP (http://www.e-crisp.org/E-CRISP/designcrispr.html) targeting ˜0.5 kb upstream of MYC transcription start site or N-terminal BRD4 gene. The sgRNA was cloned into the modified pX330 (Addgene, Cat #42230) construct co-expressing wild type SpCas9 and a PGK-Venus cassette. ˜500 bp homology arms were PCR amplified from COLO320-DM cells and cloned into a pUC19 donor vector together with ˜96 copies of TetO array and a blasticidin selection cassette
(Addgene #118713) for ecDNA-TetO array or with HaloTag (Addgene #139747) for BRD4. 2 μg of the donor vector and 1 μg of the sgRNA vector were transfected into COLO320-DM cells by lipofectamine 3000. For ecDNA-TetO array, blasticidin (10 ug/ml) selection was applied after 7 days. For BRD4-HaloTag knock-in, 100 nM HaloTag ligand JF549 (a kind gift from Luke Lavis's lab at Janelia Research Campus) was applied to the cells followed by washing and FACS sorting. Individual clones were selected, genotyped by PCR and verified by Sanger sequencing before being tested for imaging. […]
To monitor ecDNA dynamics within the nucleus, the COLO320-DM TetO-eGFP cell line was transfected with the PiggyBac vector expressing H2B-SNAPf and the super PiggyBac transposase (2:1 ratio) as described previously51. […] TetO labeled ecDNA was similarly analyzed as described in previous DNA/RNA FISH section. […]

[2] = tested on: covalently-linked MYC copies in COLO320-HSR; assay: Interphase DNA FISH of chromosomal MYC amplicon (HSR), autocorrelation g(r); conditions: 500 nM, 6 hours
[3] = tested on: MYC mRNA in COLO320-HSR cells; assay: MYC RNA measured by RT-qPCR in COLO320-HSR; conditions: 500 nM, 6 hours
Experimental: Cells were then treated for 6 hours with 500 nM JQ1 in DMSO unless otherwise indicated (Sigma-Aldrich SML1524) or an equivalent volume of DMSO.
RNA was extracted using RNeasy Plus mini Kit (QIAGEN 74136). Purified RNA was quantified by Nanodrop (Thermo Fisher). For RT-qPCR, 50 ng of RNA, 1× Brilliant II qRT-PCR mastermix with 1 μL RT/RNase block (Agilent 600825), and 200 nM forward and reverse primer were used. Each Ct value was measured using Lightcycler 480 (Roche) and each mean dCt was averaged from duplicate qRT-PCR reaction and performed in biological triplicate. Relative MYC RNA level (RT-qPCR primers MYC_exon3_fw and MYC_exon3_rv) was calculated by ddCt method compared to 18S and GAPDH controls (RT-qPCR primers GAPDH_fw, GAPDH_rv, 18S_fw, 18S_rv). P values were calculated using a Student's t-test by comparing the relative fold change of biological triplicates.
Approximately 0.6×10^6 COLO320-DM or COLO-320-HSR cells were plated in 6 well plates and cultured under standard conditions for 24 hours. Cells were then treated for 6 hours with one of the following: 500 nM JQ1 (Sigma-Aldrich SML1524), 500 nM MS645 (Sigma Aldrich SML2549), 1 μM THZ-1 (Selleck chemicals S7549), 20 μM SGC-SCP30 (Selleck chemicals S7256), 10 μM OICR-9429 (Selleck chemicals S7833), 50 μM MI-3 (Selleck chemicals S7619), 2 μM trichostatin A (Selleck chemicals S1045), or DMSO. […]

FGFR2 in SNU16 = assay: Oncogene RNA measured by RT-qPCR in SNU16 (FGFR2); conditions: 500 nM JQ1, 6 hours

Question: What does the source list for `Cc1sc2c(c1C)C(c1ccc(Cl)cc1)=N[C@@H](CC(=O)OC(C)(C)C)c1nnc(C)n1-2` [JQ1]?
Answer: ecDNA hub assembly following mitosis [1]: blocked; spatial distribution of covalently-linked MYC copies [2]: did not alter; MYC mRNA level [3]: no significant effect; ecDNA-derived transcription of FGFR2 (FGFR2 in SNU16): reduced
